Source: patent US20170107531A1, “ISOLATED NUCLEIC ACIDS AND QU[…] LOCI (QTL) FROM S. HA[…] METHODS OF USE THEREOF FOR […] BACTERIAL SPECK DISEASE IN TOMATO AND OTHER PLANTS” (Boyce Thompson Institute, priority 2015, published 2017)

Columns and labels:
[1] = system: Solyc02g072470 transcript abundance; test: Solyc02g072470 transcript abundance in leaves after MAMP treatment (qRT-PCR), RG-PtoS; format: in vivo, tomato (Rio Grande RG-PtoS)
Procedure: (§1) Two lateral leaflets on the second leaf of 3-week old tomato plants were syringe-infiltrated with 1 uM FlgII-28 ([…]) (SEQ ID NO. 1) (Cal, et al., 2011) or 10 uM Csp22 ([…]) (SEQ ID NO. 2) (Felix and Boller, 2003) and harvested 6 hrs later. Tissue samples were immediately frozen in liquid nitrogen and kept at −80° C. until use. Six-week-old plants were inoculated with 10^5 colony-forming units (CFU)/mL P. syringae pv. tomato T1 by vacuum infiltration for the visual monitoring of disease symptoms and 10^4 CFU/mL for the measurement of bacterial populations. For each replicate, three leaf discs were collected and combined; each experiment involved replicates from three independent plants.
(§2) Leaf tissue was ground in liquid nitrogen and total RNA was extracted with TRIzol reagent following the manufacturer's instructions (Life Technologies, cat. #15596-018). The concentration of total RNA was determined with a Nanodrop spectrophotometer (Thermo Scientific Co.). RNA (lug) was treated with TURBO DNA-free™ Kit (Life Technologies, cat. AM1907M) and tested for DNA contamination by amplifying SlCBL1 (Solyc12g015870) for 25 cycles; no PCR product was detected. The RNA was then used for reverse transcription PCR (RT-PCR). […] 1 μl and 0.4 μl of cDNA templates were used for RT-PCR and quantitative-RT-PCR (qRT-PCR), respectively. […]

[2] = system: Solyc02g072470 transcript abundance; test: Solyc02g072470 transcript abundance in leaves after MAMP treatment (qRT-PCR), LA2109; format: in vivo, Solanum habrochaites accession LA2109
Procedure: as §1, §2

[3] = system: reactive oxygen species (ROS) in LA2109; conditions: Veluchamy et al., 2014; cited from earlier work
[4] = system: reactive oxygen species (ROS) in LA2109; test: Reactive oxygen species (ROS) elicitation by MAMP peptides, luminescence-based assay; format: cell-based, Solanum habrochaites accession LA2109; conditions: for PTI-eliciting activity of synthetic peptide: FIG. 2D, FIGS. 3C-E, also Cai et al., 2011; for ROS elicitation (relative light units): LA2109, FIG. 3C
Procedure: FIG. 3A-FIG. 3E. […] (FIG. 3A) Bacterial speck disease on leaves of LA2109 four days after inoculation with Pst19 or Pst19ΔavrPtoB. (FIG. 3B) Bacterial populations of Pst19 and Pst19ΔavrPtoB in leaves of LA2109. Error bars indicate standard deviation. Testing the possible response of LA2109 to FlgII-28, effector HopAO1, and coronatine. […] ROS was measured as relative light units using a luminescence-based assay. […] Strain NY-T1 was included as a virulent control. All strains were inoculated at 2×10^5 CFU/mL. (FIG. 3E) Coronatine (1.25 nM) was syringe-infiltrated into leaves of LA2109 and Moneymaker (red arrows). Leaves of LA2109 were not observably more sensitive to this phytotoxin.

[5] = 10 uM Csp22, 6 hours after treatment
[6] = 1 uM FlgII-28, 6 hours after treatment, vs 10 mM MgCl2 mock

| Substance | PTI-eliciting activity of synthetic peptide [4] | ROS elicitation (relative light units) [4] | other results |
| --- | --- | --- | --- |
| AVGTVKWFNAEKGFGFITPDDG (Csp22) |  |  | Effect on Solyc02g072470 transcript abundance [1, 5]: no effect; Effect on Solyc02g072470 transcript abundance [2, 5]: significantly induced; ROS response to Csp22, LA2109 compared to RG-PtoS [3]: higher ROS response |
| FlgII-28 from T1: synthetic peptide of the FlgII-28 region of Pst strain T1 flagellin (SEQ ID NO: 75) (QTMAIKNANDGMSLAQTAEGALQESTNILQRMRELAVQSRNDSNSSTDRDALNKEFTAMS; FlgII-28 region) | fully active | same level |  |
| ESTNILQRMRELAVQSRNDSNSATDREA (FlgII-28) |  |  | Increase of Solyc02g072470 transcript abundance [1, 6]: 4 fold; Increase of Solyc02g072470 transcript abundance [2, 6]: 1.5 fold |
| FlgII-28 from NY-T1: FlgII-28 region of NY-T1 flagellin, phenylalanine at position 16 instead of serine (SEQ ID NO: 76) (QTMAIKNANDGMSLAQTAEGALQESTNILQRMRELAVQFRNDSNSSTDRDALNKEFTAMS; FlgII-28 region) |  | inactive |  |
| FlgII-28 from DC3000: synthetic peptide of the FlgII-28 region of Pst strain DC3000 flagellin (SEQ ID NO: 77) (QTMAIKNANDGMSLAQTAEGALQESTNILQRMRELAVQSRNDSNSATDREALNKEFTAMS; FlgII-28 region) | fully active | same level |  |
